In brackets after ≈: the same amount, converted by molar mass.
Columns and labels:
Coxiella burnetii [1] = test: Antimicrobial activity against compound-susceptible Coxiella burnetii Nine-Mile obtained from patient with acute Q fever infected in african green monkey Vero cells after 24 hrs by shell vial assay; type: functional
Coxiella burnetii [2] = test: Antimicrobial activity against compound-intermediate susceptible Coxiella burnetii Q212 obtained from patient with acute Q fever infected in african green monkey Vero cells after 24 hrs by shell vial assay; type: functional; settings: Q212, 24 h
Coxiella burnetii [3] = test: Antimicrobial activity against compound-susceptible Coxiella burnetii Q212 obtained from patient with acute Q fever infected in african green monkey Vero cells after 24 hrs by shell vial assay; type: functional; settings: Q212, 24 h
Coxiella burnetii [4] = test: Antimicrobial activity against compound-intermediate susceptible Coxiella burnetii isolate CP1 obtained from patient with acute Q fever infected in african green monkey Vero cells after 24 hrs by shell vial assay; type: functional; settings: isolate CP1, 24 h
Coxiella burnetii [5] = test: Antimicrobial activity against compound-susceptible Coxiella burnetii isolate CP1 obtained from patient with acute Q fever infected in african green monkey Vero cells after 24 hrs by shell vial assay; type: functional; settings: isolate CP1, 24 h
Coxiella burnetii [6] = test: Antimicrobial activity against compound-susceptible Coxiella burnetii isolate CP2 obtained from patient with acute Q fever infected in african green monkey Vero cells after 24 hrs by shell vial assay; type: functional; settings: isolate CP2, 24 h
Coxiella burnetii [7] = test: Antimicrobial activity against compound-susceptible Coxiella burnetii isolate CP3 obtained from patient with acute Q fever infected in african green monkey Vero cells after 24 hrs by shell vial assay; type: functional; settings: isolate CP3, 24 h
Coxiella burnetii [8] = test: Antimicrobial activity against compound-susceptible Coxiella burnetii isolate CP4 obtained from patient with acute Q fever infected in african green monkey Vero cells after 24 hrs by shell vial assay; type: functional; settings: isolate CP4, 24 h
Coxiella burnetii [9] = test: Antimicrobial activity against compound-susceptible Coxiella burnetii isolate CP5 obtained from patient with acute Q fever infected in african green monkey Vero cells after 24 hrs by shell vial assay; type: functional; settings: isolate CP5, 24 h
Coxiella burnetii [10] = test: Antimicrobial activity against compound-susceptible Coxiella burnetii isolate CP6 obtained from patient with acute Q fever infected in african green monkey Vero cells after 24 hrs by shell vial assay; type: functional; settings: isolate CP6, 24 h
Coxiella burnetii [11] = test: Antimicrobial activity against compound-susceptible Coxiella burnetii isolate CP7 obtained from patient with acute Q fever infected in african green monkey Vero cells after 24 hrs by shell vial assay; type: functional; settings: isolate CP7, 24 h
Coxiella burnetii [12] = test: Antimicrobial activity against compound-susceptible Coxiella burnetii isolate CP8 obtained from patient with acute Q fever infected in african green monkey Vero cells after 24 hrs by shell vial assay; type: functional; settings: isolate CP8, 24 h
Vero = test: Cytotoxicity against african green monkey Vero cells at 4 ug/ml; type: cell-based; settings: chlorocebus sabaeus
Coxiella burnetii [13] = test: Antimicrobial activity against compound-intermediate susceptible Coxiella burnetii isolate CP4 obtained from patient with acute Q fever infected in african green monkey Vero cells after 24 hrs by shell vial assay; type: functional; settings: isolate CP4, 24 h

Molecule `N[C@@H]1[C@H]2CN(c3nc4c(cc3F)c(=O)c(C(=O)O)cn4-c3ccc(F)cc3F)C[C@@H]12` [TROVAFLOXACIN] has an MIC (Coxiella burnetii [1]) of 1 µg/mL (≈ 2.4 µM), an MIC (Coxiella burnetii [2]) of 1 µg/mL (≈ 2.4 µM) and an MIC (Coxiella burnetii [3]) of 2 µg/mL (≈ 4.8 µM). For the same molecule, the MIC (Coxiella burnetii [4]) was 1 µg/mL (≈ 2.4 µM), the MIC (Coxiella burnetii [5]) was 2 µg/mL (≈ 4.8 µM) and the MIC (Coxiella burnetii [6]) was 1 µg/mL (≈ 2.4 µM). The MIC (Coxiella burnetii [7]) was 1 µg/mL (≈ 2.4 µM), the MIC (Coxiella burnetii [8]) was 1 µg/mL (≈ 2.4 µM) and the MIC (Coxiella burnetii [9]) was 1 µg/mL (≈ 2.4 µM). For the same molecule, the MIC (Coxiella burnetii [10]) was 1 µg/mL (≈ 2.4 µM), the MIC (Coxiella burnetii [11]) was 1 µg/mL (≈ 2.4 µM) and the MIC (Coxiella burnetii [12]) was 1 µg/mL (≈ 2.4 µM).
`CC[C@H]1OC(=O)[C@H](C)[C@@H](O[C@H]2C[C@@](C)(OC)[C@@H](O)[C@H](C)O2)[C@H](C)[C@@H](O[C@@H]2O[C@H](C)C[C@H](N(C)C)[C@H]2O)[C@](C)(OC)C[C@@H](C)C(=O)[C@H](C)[C@@H](O)[C@]1(C)O` [CLARITHROMYCIN] gave an MIC (Coxiella burnetii [1]) of 2 µg/mL (≈ 2.67 µM), an MIC (Coxiella burnetii [2]) of 2 µg/mL (≈ 2.67 µM) and an MIC (Coxiella burnetii [3]) of 4 µg/mL (≈ 5.35 µM). It also gave an MIC (Coxiella burnetii [4]) of 2 µg/mL (≈ 2.67 µM), an MIC (Coxiella burnetii [5]) of 4 µg/mL (≈ 5.35 µM) and an MIC (Coxiella burnetii [6]) of 2 µg/mL (≈ 2.67 µM). It also gave an MIC (Coxiella burnetii [7]) of 2 µg/mL (≈ 2.67 µM), an MIC (Coxiella burnetii [8]) of 2 µg/mL (≈ 2.67 µM) and an MIC (Coxiella burnetii [9]) of 2 µg/mL (≈ 2.67 µM). It also gave an MIC (Coxiella burnetii [10]) of 2 µg/mL (≈ 2.67 µM), an MIC (Coxiella burnetii [11]) of 2 µg/mL (≈ 2.67 µM) and an MIC (Coxiella burnetii [12]) of 2 µg/mL (≈ 2.67 µM).
`CN(C)c1cc(NC(=O)CNC(C)(C)C)c(O)c2c1C[C@H]1C[C@H]3[C@H](N(C)C)C(O)=C(C(N)=O)C(=O)[C@@]3(O)C(O)=C1C2=O` [TIGECYCLINE] gave an MIC (Coxiella burnetii [1]) of 0.25 µg/mL (≈ 0.427 µM), an MIC (Coxiella burnetii [2]) of 0.25 µg/mL (≈ 0.427 µM) and an MIC (Coxiella burnetii [3]) of 0.5 µg/mL (≈ 0.854 µM). It also gave an MIC (Coxiella burnetii [4]) of 0.25 µg/mL (≈ 0.427 µM), an MIC (Coxiella burnetii [5]) of 0.5 µg/mL (≈ 0.854 µM) and an MIC (Coxiella burnetii [6]) of 0.25 µg/mL (≈ 0.427 µM). It also gave an MIC (Coxiella burnetii [7]) of 0.25 µg/mL (≈ 0.427 µM), an MIC (Coxiella burnetii [8]) of 0.25 µg/mL (≈ 0.427 µM) and an MIC (Coxiella burnetii [9]) of 0.25 µg/mL (≈ 0.427 µM). The MIC (Coxiella burnetii [10]) was 0.25 µg/mL (≈ 0.427 µM), the MIC (Coxiella burnetii [11]) was 0.25 µg/mL (≈ 0.427 µM) and the MIC (Coxiella burnetii [12]) was 0.25 µg/mL (≈ 0.427 µM). For the same molecule, the Activity (Vero) was “Non-toxic”.
Molecule `O=C(O)c1cn(C2CC2)c2cc(N3CCNCC3)c(F)cc2c1=O` [CIPROFLOXACIN] has an MIC (Coxiella burnetii [1]) of 4 µg/mL (≈ 12.1 µM), an MIC (Coxiella burnetii [2]) of 4 µg/mL (≈ 12.1 µM) and an MIC (Coxiella burnetii [4]) of 4 µg/mL (≈ 12.1 µM). For the same molecule, the MIC (Coxiella burnetii [6]) was 4 µg/mL (≈ 12.1 µM), the MIC (Coxiella burnetii [7]) was 4 µg/mL (≈ 12.1 µM) and the MIC (Coxiella burnetii [8]) was 4 µg/mL (≈ 12.1 µM). For the same molecule, the MIC (Coxiella burnetii [9]) was 4 µg/mL (≈ 12.1 µM), the MIC (Coxiella burnetii [10]) was 4 µg/mL (≈ 12.1 µM) and the MIC (Coxiella burnetii [11]) was 4 µg/mL (≈ 12.1 µM). The MIC (Coxiella burnetii [12]) was 4 µg/mL (≈ 12.1 µM).
With `C[C@H]1c2cccc(O)c2C(=O)C2=C(O)[C@]3(O)C(=O)C(C(N)=O)=C(O)[C@@H](N(C)C)[C@@H]3[C@@H](O)[C@@H]21.O` [DOXYCYCLINE] the MIC (Coxiella burnetii [1]) was 1 µg/mL, the MIC (Coxiella burnetii [2]) was 1 µg/mL and the MIC (Coxiella burnetii [3]) was 2 µg/mL. For the same molecule, the MIC (Coxiella burnetii [4]) was 1 µg/mL, the MIC (Coxiella burnetii [5]) was 2 µg/mL and the MIC (Coxiella burnetii [6]) was 1 µg/mL. The MIC (Coxiella burnetii [7]) was 1 µg/mL, the MIC (Coxiella burnetii [13]) was 1 µg/mL and the MIC (Coxiella burnetii [8]) was 2 µg/mL. For the same molecule, the MIC (Coxiella burnetii [9]) was 1 µg/mL, the MIC (Coxiella burnetii [10]) was 1 µg/mL and the MIC (Coxiella burnetii [11]) was 1 µg/mL. It also gave an MIC (Coxiella burnetii [12]) of 1 µg/mL.
For `CC(=O)NC[C@H]1CN(c2ccc(N3CCOCC3)c(F)c2)C(=O)O1` [LINEZOLID], the MIC (Coxiella burnetii [1]) was 2 µg/mL (≈ 5.93 µM), the MIC (Coxiella burnetii [2]) was 2 µg/mL (≈ 5.93 µM) and the MIC (Coxiella burnetii [3]) was 4 µg/mL (≈ 11.9 µM). For the same molecule, the MIC (Coxiella burnetii [4]) was 2 µg/mL (≈ 5.93 µM), the MIC (Coxiella burnetii [5]) was 4 µg/mL (≈ 11.9 µM) and the MIC (Coxiella burnetii [6]) was 2 µg/mL (≈ 5.93 µM). The MIC (Coxiella burnetii [7]) was 2 µg/mL (≈ 5.93 µM), the MIC (Coxiella burnetii [8]) was 2 µg/mL (≈ 5.93 µM) and the MIC (Coxiella burnetii [9]) was 2 µg/mL (≈ 5.93 µM). It also gave an MIC (Coxiella burnetii [10]) of 2 µg/mL (≈ 5.93 µM), an MIC (Coxiella burnetii [11]) of 2 µg/mL (≈ 5.93 µM) and an MIC (Coxiella burnetii [12]) of 2 µg/mL (≈ 5.93 µM).
In the case of `CC1COc2c(N3CCN(C)CC3)c(F)cc3c(=O)c(C(=O)O)cn1c23` (centres undefined) [OFLOXACIN], the MIC (Coxiella burnetii [1]) is reported as 1 µg/mL (≈ 2.77 µM), the MIC (Coxiella burnetii [2]) is reported as 1 µg/mL (≈ 2.77 µM) and the MIC (Coxiella burnetii [3]) is reported as 2 µg/mL (≈ 5.53 µM). For the same molecule, the MIC (Coxiella burnetii [4]) was 1 µg/mL (≈ 2.77 µM), the MIC (Coxiella burnetii [5]) was 2 µg/mL (≈ 5.53 µM) and the MIC (Coxiella burnetii [6]) was 1 µg/mL (≈ 2.77 µM). The MIC (Coxiella burnetii [7]) was 1 µg/mL (≈ 2.77 µM), the MIC (Coxiella burnetii [8]) was 1 µg/mL (≈ 2.77 µM) and the MIC (Coxiella burnetii [9]) was 1 µg/mL (≈ 2.77 µM). The MIC (Coxiella burnetii [10]) was 1 µg/mL (≈ 2.77 µM), the MIC (Coxiella burnetii [11]) was 1 µg/mL (≈ 2.77 µM) and the MIC (Coxiella burnetii [12]) was 1 µg/mL (≈ 2.77 µM).

Reference: ChEMBL document CHEMBL1649456 (Antimicrob Agents Chemother, 2009)
